Test results: patent US9695155B2, “Herbicidal substituted pyrimidinyloxy benzene compounds” (E. I. DU PONT DE NEMOURS AND COMPANY, priority 2013, dated 2017)

How the values were obtained:
[1] = system: ragweed; test: Test A preemergence; format: in vivo, Ambrosia elatior; settings: for Ragweed plant response rating (0 to 100 scale): 31 g ai/ha; for Plant response rating, Ragweed: 125 g ai/ha, 0 to 100 scale where 0 is no effect and 100 is complete control
Summary of the method: (§1)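 Greenhouse pot test, loam/sand soil. Formulation: non-phytotoxic solvent mix plus surfactant. Pre: directed spray onto soil after sowing. Post: plants at 1–2 leaf, 2–10 cm. Rated visually vs untreated controls at ~10 d, 0 (no effect) to 100 (complete control).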

[2] = system: Italian ryegrass; test: Test A postemergence; format: in vivo, Lolium multiflorum; settings: for Plant response rating, Ryegrass, Italian: 31 g ai/ha, 0 to 100 scale, 0 no effect, 100 complete control
Summary of the method: as §1

[3] = system: barnyardgrass; test: Test A postemergence; format: in vivo, Echinochloa crus-galli
Summary of the method: as §1

[4] = system: galium; test: Test A postemergence; format: in vivo, Galium aparine
Description: (§2) Seeds of plant species selected from barnyardgrass (Echinochloa crus-galli), kochia (Kochia scoparia), ragweed (common ragweed, Ambrosia elatior), Italian ryegrass (Lolium multiflorum), large (Lg) crabgrass (Digitaria sanguinalis), giant foxtail (Setaria faberii), morningglory (Ipomoea spp.), pigweed (Amaranthus retroflexus), velvetleaf (Abutilon theophrasti), wheat (Triticum aestivum), and corn (Zea mays) were planted into a blend of loam soil and sand and treated preemergence with a directed soil spray using test chemicals formulated in a non-phytotoxic solvent mixture which included a surfactant.
(§3) At the same time, plants selected from these crop and weed species and also blackgrass (Alopecurus myosuroides), and galium (catchweed bedstraw, Galium aparine) were planted in pots containing the same blend of loam soil and sand and treated with postemergence applications of test chemicals formulated in the same manner. Plants ranged in height from 2 to 10 cm and were in the one- to two-leaf stage for the postemergence treatment. Treated plants and untreated controls were maintained in a greenhouse for approximately 10 days, after which time all treated plants were compared to untreated controls and visually evaluated for injury. Plant response ratings, summarized in Table A, are based on a 0 to 100 scale where 0 is no effect and 100 is complete control. A dash (-) response means no test result.

[5] = system: ragweed; test: Test A postemergence; format: in vivo, Ambrosia elatior; settings: for Plant response rating, Ragweed: 31 g ai/ha, 0 to 100 scale, 0 no effect, 100 complete control
Summary of the method: as §1

[6] = system: kochia; test: Test A postemergence; format: in vivo, Kochia scoparia
Description: as §2, §3

[7] = system: blackgrass; test: Test A postemergence; format: in vivo, Alopecurus myosuroides
Summary of the method: as §1

[8] = system: kochia; test: Test A preemergence; format: in vivo, Kochia scoparia; settings: for Kochia plant response rating (0 to 100 scale): 31 g ai/ha; for Plant response rating, Kochia: 125 g ai/ha, 0 to 100 scale where 0 is no effect and 100 is complete control
Description: as §2, §3

[9] = system: corn; test: Test A postemergence; format: in vivo, Zea mays
Summary of the method: as §1

[10] = system: giant foxtail; test: Test A preemergence; format: in vivo, Setaria faberii; settings: for Foxtail, Giant plant response rating (0 to 100 scale): 31 g ai/ha; for Plant response rating, Foxtail, Giant: 125 g ai/ha, 0 to 100 scale where 0 is no effect and 100 is complete control
Summary of the method: as §1

[11] = system: sedge, umbrella; test: Test B flooded paddy test; format: in vivo, Cyperus difformis; settings: Flood, 250 g ai/ha; 0 to 100 scale where 0 is no effect and 100 is complete control
Summary of the method: (§4)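 Flooded to 3 cm at the 2-leaf stage, pots received compound through the paddy water and were kept at that depth under greenhouse conditions. After 13–15 days, effect was rated by eye relative to controls, 0 = none and 100 = complete control.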

[12] = system: Italian ryegrass; test: Test A preemergence; format: in vivo, Lolium multiflorum; settings: for Ryegrass, Italian plant response rating (0 to 100 scale): 31 g ai/ha; for Plant response rating, Ryegrass, Italian: 125 g ai/ha, 0 to 100 scale where 0 is no effect and 100 is complete control
Description: as §2, §3

[13] = system: Heteranthera limosa; test: Test B flooded paddy test; format: in vivo; settings: Flood, 250 g ai/ha; 0 to 100 scale where 0 is no effect and 100 is complete control
Summary of the method: as §4

[14] = system: pigweed; test: Test A preemergence; format: in vivo, Amaranthus retroflexus; settings: for Pigweed plant response rating (0 to 100 scale): 31 g ai/ha; for Plant response rating, Pigweed: 125 g ai/ha, 0 to 100 scale where 0 is no effect and 100 is complete control
Summary of the method: as §1

[15] = system: barnyardgrass; test: Test A preemergence; format: in vivo, Echinochloa crus-galli; settings: for Barnyardgrass plant response rating (0 to 100 scale): 31 g ai/ha; for Plant response rating, Barnyardgrass: 125 g ai/ha, 0 to 100 scale where 0 is no effect and 100 is complete control
Summary of the method: as §1

[16] = system: wheat; test: Test A postemergence; format: in vivo, Triticum aestivum; settings: for Plant response rating, Wheat: 31 g ai/ha, 0 to 100 scale, 0 no effect, 100 complete control
Summary of the method: as §1

[17] = system: rice; test: Test B flooded paddy test; format: in vivo, Oryza sativa; settings: Flood, 250 g ai/ha; 0 to 100 scale where 0 is no effect and 100 is complete control
Summary of the method: as §4

[18] = system: pigweed; test: Test A postemergence; format: in vivo, Amaranthus retroflexus; settings: for Plant response rating, Pigweed: 31 g ai/ha, 0 to 100 scale, 0 no effect, 100 complete control
Summary of the method: as §1

[19] = system: barnyardgrass; test: Test B flooded paddy test; format: in vivo, Echinochloa crus-galli; settings: Flood, 250 g ai/ha; 0 to 100 scale where 0 is no effect and 100 is complete control
Summary of the method: as §4

[20] = system: giant foxtail; test: Test A postemergence; format: in vivo, Setaria faberii
Summary of the method: as §1

[21] = 31 g ai/ha, 0 to 100 scale, 0 no effect, 100 complete control
[22] = 125 g ai/ha, 0 to 100 scale where 0 is no effect and 100 is complete control

## FCCc1cn(-c2c(F)cccc2Oc2ncc(Cl)cn2)nn1 [Compound 108]
[1]
  Ragweed plant response rating (0 to 100 scale): 70
  Plant response rating, Ragweed: 80
[2]
  Plant response rating, Ryegrass, Italian: 0
[3]; [21]
  Plant response rating, Barnyardgrass: 20
[3]; [22]
  Plant response rating, Barnyardgrass: 60
[4]; [21]
  Plant response rating, Galium: 70
[4]; [22]
  Plant response rating, Galium: 90
[5]
  Plant response rating, Ragweed: 20
[6]; [21]
  Plant response rating, Kochia: 70
[6]; [22]
  Plant response rating, Kochia: 90
[7]; [21]
  Plant response rating, Blackgrass: 30
[7]; [22]
  Plant response rating, Blackgrass: 80
[8]
  Kochia plant response rating (0 to 100 scale): 40
  Plant response rating, Kochia: 70
[9]; [21]
  Plant response rating, Corn: 20
[9]; [22]
  Plant response rating, Corn: 30
[10]
  Foxtail, Giant plant response rating (0 to 100 scale): 20
  Plant response rating, Foxtail, Giant: 90
[11]
  Plant response rating, Sedge, Umbrella: 80
[12]
  Ryegrass, Italian plant response rating (0 to 100 scale): 0
  Plant response rating, Ryegrass, Italian: 30
[13]
  Plant response rating, Ducksalad: 85
[14]
  Pigweed plant response rating (0 to 100 scale): 90
  Plant response rating, Pigweed: 100
[15]
  Barnyardgrass plant response rating (0 to 100 scale): 10
  Plant response rating, Barnyardgrass: 70
[16]
  Plant response rating, Wheat: 10
[17]
  Plant response rating, Rice: 35
[18]
  Plant response rating, Pigweed: 50
[19]
  Plant response rating, Barnyardgrass: 0
[20]; [21]
  Plant response rating, Foxtail, Giant: 20
[20]; [22]
  Plant response rating, Foxtail, Giant: 70

## FC(F)(F)COc1cnn(-c2c(Cl)cccc2Oc2ncc(Cl)cn2)c1 [Compound 110]
[1]
  Ragweed plant response rating (0 to 100 scale): 0
  Plant response rating, Ragweed: 10
[2]
  Plant response rating, Ryegrass, Italian: 0
[3]; [21]
  Plant response rating, Barnyardgrass: 10
[3]; [22]
  Plant response rating, Barnyardgrass: 90
[4]; [21]
  Plant response rating, Galium: 40
[4]; [22]
  Plant response rating, Galium: 90
[5]
  Plant response rating, Ragweed: 10
[6]; [21]
  Plant response rating, Kochia: 90
[6]; [22]
  Plant response rating, Kochia: 100
[7]; [21]
  Plant response rating, Blackgrass: 20
[7]; [22]
  Plant response rating, Blackgrass: 80
[8]
  Kochia plant response rating (0 to 100 scale): 20
  Plant response rating, Kochia: 80
[9]; [21]
  Plant response rating, Corn: 10
[9]; [22]
  Plant response rating, Corn: 50
[10]
  Foxtail, Giant plant response rating (0 to 100 scale): 100
  Plant response rating, Foxtail, Giant: 100
[11]
  Plant response rating, Sedge, Umbrella: 95
[12]
  Ryegrass, Italian plant response rating (0 to 100 scale): 0
  Plant response rating, Ryegrass, Italian: 20
[13]
  Plant response rating, Ducksalad: 95
[14]
  Pigweed plant response rating (0 to 100 scale): 100
  Plant response rating, Pigweed: 100
[15]
  Barnyardgrass plant response rating (0 to 100 scale): 30
  Plant response rating, Barnyardgrass: 90
[16]
  Plant response rating, Wheat: 0
[17]
  Plant response rating, Rice: 0
[18]
  Plant response rating, Pigweed: 100
[19]
  Plant response rating, Barnyardgrass: 45
[20]; [21]
  Plant response rating, Foxtail, Giant: 20
[20]; [22]
  Plant response rating, Foxtail, Giant: 90

## FC(F)Oc1cnn(-c2c(Br)cccc2Oc2ncc(Cl)cn2)c1 [Compound 122]
[1]
  Ragweed plant response rating (0 to 100 scale): 0
  Plant response rating, Ragweed: 0
[2]
  Plant response rating, Ryegrass, Italian: 0
[2]; [22]
  Ryegrass, Italian plant response rating: 20
[3]; [21]
  Plant response rating, Barnyardgrass: 10
[3]; [22]
  Barnyardgrass plant response rating: 40
[4]; [21]
  Plant response rating, Galium: 20
[4]; [22]
  Galium plant response rating: 40
[5]
  Plant response rating, Ragweed: 10
[5]; [22]
  Ragweed plant response rating: 30
[6]; [21]
  Plant response rating, Kochia: 50
[6]; [22]
  Kochia plant response rating: 90
[7]; [21]
  Plant response rating, Blackgrass: 30
[7]; [22]
  Blackgrass plant response rating: 80
[8]
  Kochia plant response rating (0 to 100 scale): 20
  Plant response rating, Kochia: 100
[9]; [21]
  Plant response rating, Corn: 10
[9]; [22]
  Corn plant response rating: 30
[10]
  Foxtail, Giant plant response rating (0 to 100 scale): 50
  Plant response rating, Foxtail, Giant: 100
[11]
  Plant response rating, Sedge, Umbrella: 75
[12]
  Ryegrass, Italian plant response rating (0 to 100 scale): 0
  Plant response rating, Ryegrass, Italian: 0
[13]
  Plant response rating, Ducksalad: 80
[14]
  Pigweed plant response rating (0 to 100 scale): 80
  Plant response rating, Pigweed: 100
[15]
  Barnyardgrass plant response rating (0 to 100 scale): 10
  Plant response rating, Barnyardgrass: 70
[16]
  Plant response rating, Wheat: 0
[16]; [22]
  Wheat plant response rating: 10
[17]
  Plant response rating, Rice: 0
[18]
  Plant response rating, Pigweed: 70
[18]; [22]
  Pigweed plant response rating: 100
[19]
  Plant response rating, Barnyardgrass: 0
[20]; [21]
  Plant response rating, Foxtail, Giant: 10
[20]; [22]
  Foxtail, Giant plant response rating: 60
